In PubChem BioAssay AID1963982 (Molecular Pharmacology Branch, DTP, NCI, 2024):
pIC50: −log10 of the molar value. Several values for one entry are separate records, joined by “and”; a condition that tells them apart may be missing. Equal values may be shown once.

Tested on: 313798-341-R-J2-PDC spheroids, viability
Experiment: Anticancer human tumor 313798-341-R-J2-PDC patient-derived cervical squamous cell carcinoma cell line growth inhibition [PI3K]
Details: spheroids with HUVEC and MSC; for viability, T/C: stronger effect = lower value
Outline: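 Viability of mixed-cell spheroids was determined after exposure to pairwise combinations, one partner being inavolisib, alpelisib, duvelisib or copanlisib. Highest tested concentration matched clinical Cmax where known and 10 microM where not, descending in half-log steps.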

[1] = curve of first compound, second compound 0.00316 µM
[2] = curve of first compound, second compound 0.01 µM
[3] = curve of first compound, second compound 0.0316 µM
[4] = curve of first compound, second compound 0.1 µM
[5] = curve of first compound, second compound 0.316 µM
[6] = curve of first compound, second compound 1 µM
[7] = second compound 0.00316 µM, first compound 0.0316 µM
[8] = second compound 0.00316 µM, first compound 0.1 µM
[9] = second compound 0.01 µM, first compound 0.0316 µM
[10] = second compound 0.01 µM, first compound 0.1 µM
[11] = second compound 0.0316 µM, first compound 0.0316 µM
[12] = second compound 0.0316 µM, first compound 0.1 µM
[13] = second compound 0.1 µM, first compound 0.0316 µM
[14] = second compound 0.1 µM, first compound 0.1 µM
[15] = second compound 0.316 µM, first compound 0.0316 µM
[16] = second compound 0.316 µM, first compound 0.1 µM
[17] = second compound 1 µM, first compound 0.0316 µM
[18] = second compound 1 µM, first compound 0.1 µM
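Note: spheroids exposed to compounds for seven days.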
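Throughout, for viability, T/C: 100% = DMSO vehicle control viability.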

## CC1(C)CCC(CN2CCN(c3ccc(C(=O)NS(=O)(=O)c4ccc(NCC5CCOCC5)c([N+](=O)[O-])c4)c(Oc4cnc5[nH]ccc5c4)c3)CC2)=C(c2ccc(Cl)cc2)C1 + COc1c(OCCCN2CCOCC2)ccc2c3n(c(=NC(=O)c4cnc(N)nc4)nc12)CCN3
[1]
  pIC50: < 5.00
[2]
  pIC50: < 5.00
[3]
  pIC50: < 5.00
[4]
  pIC50: > 7.50
[5]
  pIC50: > 7.50
[6]
  pIC50: > 7.50
[7]
  viability, T/C: 98.3%
[8]
  viability, T/C: 107%
Second compound 0.00316 µM, first compound 0.316 µM
  viability, T/C: 113%
Second compound 0.00316 µM, first compound 1 µM
  viability, T/C: 101%
Second compound 0.00316 µM, first compound 3.16 µM
  viability, T/C: 87.7%
Second compound 0.00316 µM, first compound 10 µM
  viability, T/C: 102%
[9]
  viability, T/C: 105%
[10]
  viability, T/C: 110%
Second compound 0.01 µM, first compound 0.316 µM
  viability, T/C: 88.7%
Second compound 0.01 µM, first compound 1 µM
  viability, T/C: 96.5%
Second compound 0.01 µM, first compound 3.16 µM
  viability, T/C: 66.1%
Second compound 0.01 µM, first compound 10 µM
  viability, T/C: 95.2%
[11]
  viability, T/C: 70%
[12]
  viability, T/C: 77.1%
Second compound 0.0316 µM, first compound 0.316 µM
  viability, T/C: 69.3%
Second compound 0.0316 µM, first compound 1 µM
  viability, T/C: 75.8%
Second compound 0.0316 µM, first compound 3.16 µM
  viability, T/C: 47.4%
Second compound 0.0316 µM, first compound 10 µM
  viability, T/C: 73.2%
[13]
  viability, T/C: 44.4%
[14]
  viability, T/C: 41.4%
Second compound 0.1 µM, first compound 0.316 µM
  viability, T/C: 40.3%
Second compound 0.1 µM, first compound 1 µM
  viability, T/C: 37.8%
Second compound 0.1 µM, first compound 3.16 µM
  viability, T/C: 35.1%
Second compound 0.1 µM, first compound 10 µM
  viability, T/C: 41.2%
[15]
  viability, T/C: 14.6%
[16]
  viability, T/C: 14.6%
Second compound 0.316 µM, first compound 0.316 µM
  viability, T/C: 16.5%
Second compound 0.316 µM, first compound 1 µM
  viability, T/C: 14.2%
Second compound 0.316 µM, first compound 3.16 µM
  viability, T/C: 13.3%
Second compound 0.316 µM, first compound 10 µM
  viability, T/C: 15%
[17]
  viability, T/C: 9.63%
[18]
  viability, T/C: 9.06%
Second compound 1 µM, first compound 0.316 µM
  viability, T/C: 11.1%
Second compound 1 µM, first compound 1 µM
  viability, T/C: 10.6%
Second compound 1 µM, first compound 3.16 µM
  viability, T/C: 12%
Second compound 1 µM, first compound 10 µM
  viability, T/C: 11.2%

## Cn1ncnc1[C@H]1c2n[nH]c(=O)c3cc(F)cc(c23)N[C@@H]1c1ccc(F)cc1 + COc1c(OCCCN2CCOCC2)ccc2c3n(c(=NC(=O)c4cnc(N)nc4)nc12)CCN3
[1]
  pIC50: < 7.00
[2]
  pIC50: < 7.00
[3]
  pIC50: < 7.00
[4]
  pIC50: > 9.50
[5]
  pIC50: > 9.50
[6]
  pIC50: > 9.50
Second compound 0.00316 µM, first compound 0.000316 µM
  viability, T/C: 97.5%
Second compound 0.00316 µM, first compound 0.001 µM
  viability, T/C: 95.9%
Second compound 0.00316 µM, first compound 0.00316 µM
  viability, T/C: 107%
Second compound 0.00316 µM, first compound 0.01 µM
  viability, T/C: 111%
[7]
  viability, T/C: 97.9%
[8]
  viability, T/C: 93.1%
Second compound 0.01 µM, first compound 0.000316 µM
  viability, T/C: 106%
Second compound 0.01 µM, first compound 0.001 µM
  viability, T/C: 107%
Second compound 0.01 µM, first compound 0.00316 µM
  viability, T/C: 99%
Second compound 0.01 µM, first compound 0.01 µM
  viability, T/C: 89.6%
[9]
  viability, T/C: 87.9%
[10]
  viability, T/C: 87.3%
Second compound 0.0316 µM, first compound 0.000316 µM
  viability, T/C: 68.4%
Second compound 0.0316 µM, first compound 0.001 µM
  viability, T/C: 97.1%
Second compound 0.0316 µM, first compound 0.00316 µM
  viability, T/C: 75.8%
Second compound 0.0316 µM, first compound 0.01 µM
  viability, T/C: 71.5%
[11]
  viability, T/C: 64.2%
[12]
  viability, T/C: 65.1%
Second compound 0.1 µM, first compound 0.000316 µM
  viability, T/C: 39.6%
Second compound 0.1 µM, first compound 0.001 µM
  viability, T/C: 49.8%
Second compound 0.1 µM, first compound 0.00316 µM
  viability, T/C: 46.6%
Second compound 0.1 µM, first compound 0.01 µM
  viability, T/C: 43.6%
[13]
  viability, T/C: 42.4%
[14]
  viability, T/C: 37.1%
Second compound 0.316 µM, first compound 0.000316 µM
  viability, T/C: 17.3%
Second compound 0.316 µM, first compound 0.001 µM
  viability, T/C: 18.4%
Second compound 0.316 µM, first compound 0.00316 µM
  viability, T/C: 15.1%
Second compound 0.316 µM, first compound 0.01 µM
  viability, T/C: 15.7%
[15]
  viability, T/C: 12.8%
[16]
  viability, T/C: 15.7%
Second compound 1 µM, first compound 0.000316 µM
  viability, T/C: 11.8%
Second compound 1 µM, first compound 0.001 µM
  viability, T/C: 14.1%
Second compound 1 µM, first compound 0.00316 µM
  viability, T/C: 14.5%
Second compound 1 µM, first compound 0.01 µM
  viability, T/C: 12.5%
[17]
  viability, T/C: 13.9%
[18]
  viability, T/C: 10.1%

## C=CC(=O)N1CCN(c2nc(=O)n(-c3c(C)ccnc3C(C)C)c3nc(-c4c(O)cccc4F)c(F)cc23)C(C)C1 (stereo unspecified)
Compound 0.0316 µM
  viability, T/C: 100% [middle of 4 runs]
Compound 0.1 µM
  viability, T/C: 95% [middle of 4 runs]
Compound 0.316 µM
  viability, T/C: 95.7% [middle of 4 runs]
Compound 1 µM
  viability, T/C: 97.1% [middle of 4 runs]
Compound 3.16 µM
  viability, T/C: 105% [middle of 4 runs]
Compound 10 µM
  viability, T/C: 96.5% (2×) and 104% and 105%
Curve of compound
  pIC50: < 5.00
